Assay results: US4882313A, “Carboxamide derivatives of glycopeptides” (SmithKline Beckman Corporation, priority 1987, dated 1989)

Key:
[1] = test system: Staphylococcus haemolyticus; assay: standard microtiter assay, minimum inhibitory concentration; type: cell-based; conditions: Test Organism 7, Staphylococcus haemolyticus
From the text: (§1) Representative results of standard microtiter assays are reported in Table 1 which follows, as the minimum inhibitory concentration of antibiotic (mg/ml). In Table 1, test organisms 1-5 were different strains of Staphylococcus aureus; 6, 8, 11, 13 and 14 were different strains of Staphylococcus epidermidis; 7 was a Staphylococcus haemolyticus; 9 and 10 were different strains of Streptococcus faecalis; and 12 was a Staphylococcus saprophyticus.

[2] = test system: Streptococcus faecalis; assay: as above; type: cell-based; conditions: for minimum inhibitory concentration of antibiotic, Test Organism 9: Test Organism 9, strain of Streptococcus faecalis; for minimum inhibitory concentration of antibiotic, Test Organism 10: Test Organism 10, strain of Streptococcus faecalis
From the text: as §1

[3] = test system: Staphylococcus aureus; assay: as above; type: cell-based; conditions: for minimum inhibitory concentration of antibiotic, Test Organism 1: Test Organism 1, strain of Staphylococcus aureus; for minimum inhibitory concentration of antibiotic, Test Organism 2: Test Organism 2, strain of Staphylococcus aureus; for minimum inhibitory concentration of antibiotic, Test Organism 3: Test Organism 3, strain of Staphylococcus aureus; for minimum inhibitory concentration of antibiotic, Test Organism 4: Test Organism 4, strain of Staphylococcus aureus; for minimum inhibitory concentration of antibiotic, Test Organism 5: Test Organism 5, strain of Staphylococcus aureus
From the text: as §1

[4] = test system: Staphylococcus saprophyticus; assay: as above; type: cell-based; conditions: Test Organism 12, Staphylococcus saprophyticus
From the text: as §1

[5] = test system: Staphylococcus epidermidis; assay: as above; type: cell-based; parameters: minimum inhibitory concentration of antibiotic, Test Organism 8: unit not given here; conditions: for minimum inhibitory concentration of antibiotic, Test Organism 6: Test Organism 6, strain of Staphylococcus epidermidis; for minimum inhibitory concentration of antibiotic, Test Organism 8: Test Organism 8, strain of Staphylococcus epidermidis; for minimum inhibitory concentration of antibiotic, Test Organism 11: Test Organism 11, strain of Staphylococcus epidermidis; for minimum inhibitory concentration of antibiotic, Test Organism 13: Test Organism 13, strain of Staphylococcus epidermidis; for minimum inhibitory concentration of antibiotic, Test Organism 14: Test Organism 14, strain of Staphylococcus epidermidis
From the text: as §1

[6] = pI (analytical data, Table 2); type: physicochemical
From the text: Using substantially the procedures of both Examples 1 and 2, the compounds of Examples 3-15 were obtained by using the appropriate glycopeptide and amine starting materials.

CNC1C(=O)NC2C(=O)NC(C(=O)NC3C(=O)NC4C(=O)NC(C(=O)NC(C(=O)NCCN(C)C)c5cc(O)cc(O)c5-c5cc4ccc5O)C(O)c4cc(Cl)c(c(Cl)c4)Oc4cc3cc(c4O)Oc3ccc(cc3Cl)C2O)c2cc(cc(O)c2Cl)Oc2cc1ccc2O (centres unmarked) [Compound 2g, Ardacin aglycone-(2-N,Ndimethylaminoethyl amide)]
minimum inhibitory concentration of antibiotic, Test Organism 7 [1]: 200 µg/mL
minimum inhibitory concentration of antibiotic, Test Organism 9 [2]: 100 µg/mL
minimum inhibitory concentration of antibiotic, Test Organism 10 [2]: 200 µg/mL
minimum inhibitory concentration of antibiotic, Test Organism 1 [3]: 200 µg/mL
minimum inhibitory concentration of antibiotic, Test Organism 2 [3]: 100 µg/mL
minimum inhibitory concentration of antibiotic, Test Organism 3 [3]: 200 µg/mL
minimum inhibitory concentration of antibiotic, Test Organism 4 [3]: 400 µg/mL
minimum inhibitory concentration of antibiotic, Test Organism 5 [3]: 100 µg/mL
minimum inhibitory concentration of antibiotic, Test Organism 12 [4]: 100 µg/mL
minimum inhibitory concentration of antibiotic, Test Organism 6 [5]: 200 µg/mL
minimum inhibitory concentration of antibiotic, Test Organism 8 [5]: 0.2
minimum inhibitory concentration of antibiotic, Test Organism 11 [5]: 200 µg/mL
minimum inhibitory concentration of antibiotic, Test Organism 13 [5]: 50 µg/mL
minimum inhibitory concentration of antibiotic, Test Organism 14 [5]: 50 µg/mL
pI [6]: 7.7

CNC1C(=O)NC2C(=O)NC(C(=O)NC3C(=O)NC4C(=O)NC(C(=O)NC(C(N)=O)c5cc(O)cc(OC6OC(CO)C(O)C(O)C6O)c5-c5cc4ccc5O)C(O)c4ccc(c(Cl)c4)Oc4cc3cc(c4OC3OC(C(N)=O)C(O)C(O)C3NC(=O)CCCCCCCCC(C)C)Oc3ccc(cc3)C2O)c2cc(cc(O)c2Cl)Oc2cc1ccc2O (centres unmarked) [Compound 2q, AAJ-271 C1 diamide]
minimum inhibitory concentration of antibiotic, Test Organism 7 [1]: 3100 µg/mL
minimum inhibitory concentration of antibiotic, Test Organism 9 [2]: 200 µg/mL
minimum inhibitory concentration of antibiotic, Test Organism 10 [2]: 200 µg/mL
minimum inhibitory concentration of antibiotic, Test Organism 1 [3]: 800 µg/mL
minimum inhibitory concentration of antibiotic, Test Organism 2 [3]: 1600 µg/mL
minimum inhibitory concentration of antibiotic, Test Organism 3 [3]: 800 µg/mL
minimum inhibitory concentration of antibiotic, Test Organism 4 [3]: > 1600 µg/mL
minimum inhibitory concentration of antibiotic, Test Organism 5 [3]: 1600 µg/mL
minimum inhibitory concentration of antibiotic, Test Organism 12 [4]: 12500 µg/mL
minimum inhibitory concentration of antibiotic, Test Organism 6 [5]: 12500 µg/mL
minimum inhibitory concentration of antibiotic, Test Organism 8 [5]: 6.3
minimum inhibitory concentration of antibiotic, Test Organism 11 [5]: 12500 µg/mL
minimum inhibitory concentration of antibiotic, Test Organism 13 [5]: 3100 µg/mL
minimum inhibitory concentration of antibiotic, Test Organism 14 [5]: 3100 µg/mL
pI [6]: 7.3

CNC1C(=O)NC2C(=O)NC(C(=O)NC3C(=O)NC4C(=O)NC(C(=O)NC(C(N)=O)c5cc(O)cc(O)c5-c5cc4ccc5O)C(O)c4cc(Cl)c(c(Cl)c4)Oc4cc3cc(c4O)Oc3ccc(cc3Cl)C2O)c2cc(cc(O)c2Cl)Oc2cc1ccc2O (centres unmarked) [Compound 2c, Ardacin aglycone amide]
minimum inhibitory concentration of antibiotic, Test Organism 7 [1]: 800 µg/mL
minimum inhibitory concentration of antibiotic, Test Organism 9 [2]: 200 µg/mL
minimum inhibitory concentration of antibiotic, Test Organism 10 [2]: 400 µg/mL
minimum inhibitory concentration of antibiotic, Test Organism 1 [3]: 200 µg/mL
minimum inhibitory concentration of antibiotic, Test Organism 2 [3]: 200 µg/mL
minimum inhibitory concentration of antibiotic, Test Organism 3 [3]: 400 µg/mL
minimum inhibitory concentration of antibiotic, Test Organism 4 [3]: 400 µg/mL
minimum inhibitory concentration of antibiotic, Test Organism 5 [3]: 200 µg/mL
minimum inhibitory concentration of antibiotic, Test Organism 12 [4]: 200 µg/mL
minimum inhibitory concentration of antibiotic, Test Organism 6 [5]: 400 µg/mL
minimum inhibitory concentration of antibiotic, Test Organism 8 [5]: 0.4
minimum inhibitory concentration of antibiotic, Test Organism 11 [5]: 400 µg/mL
minimum inhibitory concentration of antibiotic, Test Organism 13 [5]: 400 µg/mL
minimum inhibitory concentration of antibiotic, Test Organism 14 [5]: 200 µg/mL
pI [6]: 7.1

CNC1C(=O)NC2C(=O)NC(C(=O)NC3C(=O)NC4C(=O)NC(C(=O)NC(C(N)=O)c5cc(O)cc(OC6OC(CO)C(O)C(O)C6O)c5-c5cc4ccc5O)C(O)c4cc(Cl)c(c(Cl)c4)Oc4cc3cc(c4O)Oc3ccc(cc3Cl)C2O)c2cc(cc(O)c2Cl)Oc2cc1ccc2O (centres unmarked) [Compound 2n, Ardacin mannosylaglycone amide]
minimum inhibitory concentration of antibiotic, Test Organism 7 [1]: 1600 µg/mL
minimum inhibitory concentration of antibiotic, Test Organism 9 [2]: 200 µg/mL
minimum inhibitory concentration of antibiotic, Test Organism 1 [3]: 200 µg/mL
minimum inhibitory concentration of antibiotic, Test Organism 2 [3]: 800 µg/mL
minimum inhibitory concentration of antibiotic, Test Organism 3 [3]: 100 µg/mL
minimum inhibitory concentration of antibiotic, Test Organism 4 [3]: 3100 µg/mL
minimum inhibitory concentration of antibiotic, Test Organism 5 [3]: 400 µg/mL
minimum inhibitory concentration of antibiotic, Test Organism 12 [4]: 1600 µg/mL
minimum inhibitory concentration of antibiotic, Test Organism 6 [5]: 1600 µg/mL
minimum inhibitory concentration of antibiotic, Test Organism 11 [5]: 6300 µg/mL
minimum inhibitory concentration of antibiotic, Test Organism 13 [5]: 1600 µg/mL
minimum inhibitory concentration of antibiotic, Test Organism 14 [5]: 1600 µg/mL
pI [6]: 7.1

CCCCCCCCCC(=O)NC1C(Oc2c3cc4cc2Oc2c(Cl)cc(cc2Cl)C(O)C2NC(=O)C(NC(=O)C4NC(=O)C4NC(=O)C(NC(=O)C(NC)c5ccc(O)c(c5)Oc5cc(O)c(Cl)c4c5)C(O)c4ccc(c(Cl)c4)O3)c3ccc(O)c(c3)-c3c(OC4OC(CO)C(O)C(O)C4O)cc(O)cc3C(C(=O)NCCN)NC2=O)OC(C(=O)NCCN)C(O)C1O (centres unmarked) [Compound 2m, Ardacin A-di-(2-aminoethylamide)]
minimum inhibitory concentration of antibiotic, Test Organism 7 [1]: 800 µg/mL
minimum inhibitory concentration of antibiotic, Test Organism 9 [2]: 100 µg/mL
minimum inhibitory concentration of antibiotic, Test Organism 10 [2]: 100 µg/mL
minimum inhibitory concentration of antibiotic, Test Organism 1 [3]: 100 µg/mL
minimum inhibitory concentration of antibiotic, Test Organism 2 [3]: 100 µg/mL
minimum inhibitory concentration of antibiotic, Test Organism 3 [3]: 100 µg/mL
minimum inhibitory concentration of antibiotic, Test Organism 4 [3]: 800 µg/mL
minimum inhibitory concentration of antibiotic, Test Organism 5 [3]: 400 µg/mL
minimum inhibitory concentration of antibiotic, Test Organism 12 [4]: 400 µg/mL
minimum inhibitory concentration of antibiotic, Test Organism 6 [5]: 1600 µg/mL
minimum inhibitory concentration of antibiotic, Test Organism 8 [5]: 0.1
minimum inhibitory concentration of antibiotic, Test Organism 11 [5]: 800 µg/mL
minimum inhibitory concentration of antibiotic, Test Organism 13 [5]: 200 µg/mL
pI [6]: 8.4

CNC1C(=O)NC2C(=O)NC(C(=O)NC3C(=O)NC4C(=O)NC(C(=O)NC(C(=O)NCCCCCCN)c5cc(O)cc(O)c5-c5cc4ccc5O)C(O)c4cc(Cl)c(c(Cl)c4)Oc4cc3cc(c4O)Oc3ccc(cc3Cl)C2O)c2cc(cc(O)c2Cl)Oc2cc1ccc2O (centres unmarked) [Compound 2h, Ardacin aglycone-(6-aminohexyl amide)]
minimum inhibitory concentration of antibiotic, Test Organism 7 [1]: 200 µg/mL
minimum inhibitory concentration of antibiotic, Test Organism 9 [2]: 100 µg/mL
minimum inhibitory concentration of antibiotic, Test Organism 10 [2]: 100 µg/mL
minimum inhibitory concentration of antibiotic, Test Organism 1 [3]: 100 µg/mL
minimum inhibitory concentration of antibiotic, Test Organism 2 [3]: 100 µg/mL
minimum inhibitory concentration of antibiotic, Test Organism 3 [3]: 400 µg/mL
minimum inhibitory concentration of antibiotic, Test Organism 4 [3]: 100 µg/mL
minimum inhibitory concentration of antibiotic, Test Organism 5 [3]: 100 µg/mL
minimum inhibitory concentration of antibiotic, Test Organism 12 [4]: 200 µg/mL
minimum inhibitory concentration of antibiotic, Test Organism 6 [5]: 100 µg/mL
minimum inhibitory concentration of antibiotic, Test Organism 8 [5]: 0.1
minimum inhibitory concentration of antibiotic, Test Organism 11 [5]: 200 µg/mL
minimum inhibitory concentration of antibiotic, Test Organism 13 [5]: 100 µg/mL
pI [6]: 7.7
